# What was measured:
# [1] = test system: Human alphaherpesvirus 2; test: Antiviral activity against Herpes simplex virus 2; format: functional, organism-based; conditions: Human alphaherpesvirus 2
# [2] = test system: Human gammaherpesvirus 4; test: Antiviral activity against Epstein-Barr virus; format: functional, organism-based
# [3] = test system: Human alphaherpesvirus 1; test: Antiviral activity against Herpes simplex virus 1; format: functional, organism-based; conditions: Human alphaherpesvirus 1
# [4] = test system: Human alphaherpesvirus 3; test: Antiviral activity against Varicella zoster virus; format: functional, organism-based
# [5] = test system: Moloney murine sarcoma virus; test: Antiviral activity against Moloney sarcoma virus; format: functional, organism-based
# [6] = test system: Vaccinia virus; test: Antiviral activity against Vaccinia virus; format: functional, organism-based, Orthopoxvirus vaccinia
# [7] = test system: Cowpox virus; test: Antiviral activity against Cowpox virus; format: functional, organism-based
# [8] = test system: Monkeypox virus; test: Antiviral activity against Monkeypox virus; format: functional, organism-based
# [9] = test system: Human betaherpesvirus 6; test: Antiviral activity against Human herpesvirus 6A; format: functional, organism-based
# [10] = test system: Human betaherpesvirus 6; test: Antiviral activity against Human herpesvirus 6B; format: functional, organism-based
# [11] = test system: Human betaherpesvirus 5; test: Antiviral activity against Human cytomegalovirus; format: functional, organism-based; conditions: Human betaherpesvirus 5
# [12] = test system: Simplexvirus; test: Antiviral activity against Herpes simplex virus; format: functional, organism-based
# [13] = test system: Human adenovirus 2; test: Antiviral activity against Human adenovirus 2; format: functional, organism-based; conditions: Human mastadenovirus C
# [14] = test system: Human respirovirus 1; test: Antiviral activity against Human parainfluenza virus 1; format: functional, organism-based
# [15] = test system: Picornaviridae; test: Antiviral activity against Human picornavirus; format: functional, organism-based
# [16] = test system: Influenza A virus; test: Antiviral activity against influenza H1N1 virus; format: functional, organism-based
# [17] = test system: Human immunodeficiency virus 1; test: Antiviral activity against HIV1; format: functional, organism-based
# [18] = test system: Human immunodeficiency virus 2; test: Antiviral activity against HIV2; format: functional, organism-based
# [19] = test system: unidentified influenza virus; test: Antiviral activity against influenza virus; format: functional, organism-based
# [20] = test system: Influenza B virus; test: Antiviral activity against influenza B virus; format: functional, organism-based
# [21] = test system: Influenza A virus H3N2; test: Antiviral activity against influenza H3N2 virus; format: functional, organism-based, H3N2 subtype
# [22] = test system: H5N1 subtype; test: Antiviral activity against influenza H5N1 virus; format: functional, organism-based; conditions: Influenza A virus
# [23] = test system: H2N2 subtype; test: Antiviral activity against influenza H2N2 virus; format: functional, organism-based; conditions: Influenza A virus
# [24] = test system: Hepatitis B virus; test: Antiviral activity against Hepatitis B virus; format: functional, organism-based
# [25] = test system: Human parainfluenza virus 2; test: Antiviral activity against Human parainfluenza virus 2; format: functional, organism-based; conditions: Human orthorubulavirus 2
# [26] = test system: Respirovirus muris; test: Antiviral activity against Sendai virus; format: functional, organism-based
# [27] = test system: Human respirovirus 3; test: Antiviral activity against Human parainfluenza virus 3; format: functional, organism-based
# [28] = test system: Human gammaherpesvirus 8; test: Antiviral activity against Human herpesvirus 8; format: functional, organism-based
# [29] = test system: Hepatitis C virus; test: Antiviral activity against Hepatitis C virus c; format: functional, organism-based, Hepacivirus hominis
# [30] = test system: Influenza C virus; test: Antiviral activity against Influenza C virus; format: functional, organism-based
# [31] = test system: Camelpox virus; test: Antiviral activity against Camelpox virus; format: functional, organism-based
smiles,measurement,setting,value
COc1nc(N)nc2c1ncn2/C=C1/CC1(CO)CO,IC50,[1],361 µM
same,IC50,[2],161 µM
same,IC50,[3],361 µM
same,IC50,[4],3000 nM
Nc1cc(SCCOCP(=O)(O)O)nc(N)n1,IC50,[5],0.607 µM
same,IC50,[1],0.000286 µM
same,IC50,[3],0.000104 µM
same,IC50,[4],0.0536 nM
Nc1ccn(C[C@H]2COP(=O)(O)CO2)c(=O)n1 [CYCLIC CIDOFOVIR],IC50,[6]; Orthopoxvirus vaccinia,21 µM
same,IC50,[7],51 µM
same,IC50,[8],760 µM
CC(C)Nc1nc2cc(Cl)c(Cl)cc2n1[C@H]1O[C@@H](CO)[C@H](O)[C@@H]1O [MARIBAVIR],IC50,[9],125 µM
same,IC50,[10],106 µM
Nc1ccn(C[C@@H](CO)OCP(=O)(O)O)c(=O)n1 (stereo in doubt; form 1) [CIDOFOVIR],IC50,[11],0.06 µM
same,IC50,[12],3.3 µM
same,IC50,[6],23 µM
same,IC50,[7],48 µM
same,IC50,[13],3.1 µM
same,IC50,[8],505 µM
C/C=C\[C@@H]1C[C@H](C(=O)O)N[C@H]1[C@@H](NC(C)=O)[C@](C)(CCC)OC,IC50,[14],14.1 µM
Nc1ncnc2c1ncn2C[C@@H](CO)OCP(=O)(O)O,IC50,[6]; Orthopoxvirus vaccinia,3.5 µM
same,IC50,[7],5 µM
same,IC50,[13],0.63 µM
Nc1nc2ccc(/C(=N/O)c3ccccc3)nn2c1-c1ccccc1,IC50,[15],0.04 µM
CCCC(CCC)C(NC(C)=O)C1CC(C(=O)O)CC1NC(=N)N (configuration not stated),IC50,[16],0.72 µM
Nc1nc(OCCOCP(=O)(O)O)cc(OCCOCP(=O)(O)O)n1,IC50,[5],0.000107 µM
same,IC50,[1],0.000993 µM
same,IC50,[17],0.000141 µM
same,IC50,[3],0.000596 µM
same,IC50,[18],0.000199 µM
same,IC50,[4],0.124 nM
Nc1nc(NC2CC2)cc(OCCOCP(=O)(O)O)n1,IC50,[5],0.000132 µM
same,IC50,[1],0.000263 µM
same,IC50,[17],0.000329 µM
same,IC50,[3],0.000789 µM
same,IC50,[4],0.164 nM
CCC(CC)[C@H](NC(C)=O)[C@@H]1[C@H](O)[C@@H](C(=O)O)C[C@H]1NC(=N)N [PERAMIVIR ANHYDROUS],IC50,[19],8.4 µM
same,IC50,[16],0.2 µM
CCOC(=O)C1=C[C@@H](OC(CC)CC)[C@H](NC(C)=O)[C@@H](N)C1 [OSELTAMIVIR],IC50,[19],45 µM
same,IC50,[20],2.1 µM
same,IC50,[21],0.26 µM
same,IC50,[16],2.5 µM
same,IC50,[22],34 µM
same,IC50,[23],1.45 µM
Cc1cn(/C=C2\CC2(F)CO)c(=O)[nH]c1=O (configuration not stated),IC50,[2],20 µM
same,IC50,[17],100 µM
same,IC50,[24],20 µM
same,IC50,[4],442000 nM
CC(C)C(=O)N[C@H]1[C@H]([C@H](O)[C@H](O)CO)OC(C(=O)O)=C[C@@H]1NS(=O)(=O)C(Cl)Cl,IC50,[14],1.2 µM
same,IC50,[25],1.9 µM
same,IC50,[26],1.8 µM
same,IC50,[27],2 µM
CNC(=O)/C=C(\c1ccc(OC)cc1)c1ccc2nc(NCC(=O)NC)c(-c3ccc(F)cc3)n2n1,IC50,[15],0.6 µM
Nc1nc2c(ncn2/C=C2/CC2(CO)CO)c(=O)[nH]1 [FILOCICLOVIR],IC50,[1],380 µM
same,IC50,[2],45 µM
same,IC50,[3],380 µM
same,IC50,[4],380000 nM
Nc1nc2c(ncn2/C=C2\CC2(CO)CO)c(=O)[nH]1,IC50,[1],380 µM
same,IC50,[2],119 µM
same,IC50,[28],190 µM
same,IC50,[9],116 µM
same,IC50,[11],123 µM
same,IC50,[3],380 µM
same,IC50,[4],380000 nM
same,IC50,[10],43 µM
OC[C@H]1O[C@@H](n2c(Br)nc3cc(Cl)c(Cl)cc32)[C@H](O)[C@@H]1O,IC50,[9],125 µM
same,IC50,[10],125 µM
CCC(CC)C(NC(C)=O)C1C(NC(=N)N)CC(C(=O)O)C1O (configuration not stated),IC50,[21],0.14 µM
Nc1nc2ccc(/C(=N/O)c3ccccc3)nn2c1-c1ccc(F)cc1,IC50,[15],0.05 µM
CCC(CC)O[C@@H]1C=C(C(=O)O)C[C@H](N)[C@H]1NC(C)=O [OSELTAMIVIR CARBOXYLATE],IC50,[20],0.015 µM
same,IC50,[21],0.0006 µM
same,IC50,[16],0.0039 µM
same,IC50,[23],0.00017 µM
Cc1cn(/C=C2/CC2(F)CO)c(=O)[nH]c1=O (configuration not stated),IC50,[2],51.7 µM
same,IC50,[17],100 µM
same,IC50,[24],20 µM
same,IC50,[4],620 nM
CC(=O)N[C@H]1[C@H]([C@H](O)[C@H](O)CO)OC(C(=O)O)=C[C@@H]1NC(=N)N [ZANAMIVIR],IC50,[21],0.68 µM
same,IC50,[22],0.22 µM
same,IC50,[23],0.76 µM
Nc1ccn(/C=C2/CC2(CO)CO)c(=O)n1,IC50,[1],448 µM
same,IC50,[2],45 µM
same,IC50,[28],197 µM
same,IC50,[11],14 µM
same,IC50,[3],448 µM
same,IC50,[4],448000 nM
CCC(CC)C(NC(C)=O)C1CC(C(=O)O)CC1NC(=N)N (configuration not stated),IC50,[16],0.64 µM
Nc1nc(OCCOCP(=O)(O)O)cc(=O)n1CCOCP(=O)(O)O,IC50,[5],0.000266 µM
same,IC50,[1],0.000993 µM
same,IC50,[17],0.000248 µM
same,IC50,[3],0.000993 µM
same,IC50,[18],0.000248 µM
same,IC50,[4],0.124 nM
Nc1cc(O)nc(SCCOCP(=O)(O)O)n1,IC50,[5],0.000256 µM
same,IC50,[1],0.00142 µM
same,IC50,[17],0.000356 µM
same,IC50,[3],0.00142 µM
same,IC50,[4],0.178 nM
CN(C)c1cc(OCCOCP(=O)(O)O)nc(N)n1,IC50,[5],0.000455 µM
same,IC50,[1],0.00137 µM
same,IC50,[17],0.000342 µM
same,IC50,[3],0.00137 µM
same,IC50,[18],0.000342 µM
same,IC50,[4],0.171 nM
CNC(=O)/C=C(\c1ccccc1)c1ccc2nc(NCC(=O)NC)c(-c3ccc(F)cc3)n2n1,IC50,[15],0.11 µM
Nc1nc(N)c2ncn(/C=C3\CC3(CO)CO)c2n1,IC50,[1],381 µM
same,IC50,[28],165 µM
same,IC50,[11],3.3 µM
same,IC50,[3],381 µM
same,IC50,[4],39000 nM
C=C[C@@H]1C[C@]1(NC(=O)[C@@H]1C[C@@H](Oc2cc(-c3ccccc3)nc3cc(OC)ccc23)CN1C(=O)[C@H](CC(C)C)NC(=O)OC(C)(C)C)C(=O)O,IC50,[29],0.492 µM
Nc1ncnc2c1ncn2/C=C1/CC1(CO)CO,IC50,[1],404 µM
same,IC50,[2],166 µM
same,IC50,[28],57 µM
same,IC50,[11],12 µM
same,IC50,[3],404 µM
same,IC50,[4],404000 nM
Nc1cc(=O)n(CCOCP(=O)(O)O)cn1,IC50,[5],0.000554 µM
same,IC50,[1],0.00161 µM
same,IC50,[17],0.000402 µM
same,IC50,[3],0.00161 µM
same,IC50,[18],0.000402 µM
same,IC50,[4],0.201 nM
Nc1nc2c(ncn2COC(CO)CO)c(=O)[nH]1 [GANCICLOVIR],IC50,[6]; Orthopoxvirus vaccinia,392 µM
same,IC50,[13],35 µM
O[C@@H]1[C@H](O)[C@H](O)CO[C@H]1n1c(Br)nc2cc(Cl)c(Cl)cc21,IC50,[9],125 µM
same,IC50,[10],95 µM
CC(C)C(=O)N[C@H]1[C@H]([C@H](O)[C@H](O)CO)OC(C(=O)O)=C[C@@H]1N=[N+]=[N-],IC50,[25],2.2 µM
same,IC50,[26],0.1 µM
NC12CC3CC(CC(C3)C1)C2 [AMANTADINE],IC50,[20],50 µM
same,IC50,[21],0.63 µM
same,IC50,[16],50 µM
Nc1ccn([C@@H]2CS[C@H](CO)O2)c(=O)n1 [LAMIVUDINE],IC50,[6]; Orthopoxvirus vaccinia,436 µM
same,IC50,[7],436 µM
same,IC50,[13],100 µM
CNC(=O)/C=C(\c1ccc(C)cc1)c1ccc2nc(NCC(=O)NC)c(-c3ccc(F)cc3)n2n1,IC50,[15],0.23 µM
O=C(O)P(=O)(O)O [FOSCARNET],IC50,[11],7 µM
same,IC50,[13],500 µM
Nc1nc2c(ncn2/C=C2\CC2(F)CO)c(=O)[nH]1 (configuration not stated),IC50,[2],20 µM
same,IC50,[17],100 µM
same,IC50,[24],20 µM
same,IC50,[4],79600 nM
NC(=O)c1nc(F)cnc1O,IC50,[20],0.089 µM
same,IC50,[16],0.16 µM
same,IC50,[30],0.044 µM
same,IC50,[23],0.048 µM
NC(=O)c1ncn([C@@H]2O[C@H](CO)[C@@H](O)[C@H]2O)n1 [RIBAVIRIN],IC50,[20],19 µM
same,IC50,[21],20 µM
same,IC50,[31],215 µM
same,IC50,[16],7.7 µM
same,IC50,[23],13.8 µM
same,IC50,[6]; Orthopoxvirus vaccinia,281 µM
same,IC50,[7],410 µM
same,IC50,[13],100 µM
same,IC50,[8],145 µM
Nc1ccn([C@H]2CC[C@@H](CO)O2)c(=O)n1 [ZALCITABINE],IC50,[13],3.3 µM
Nc1nc2ccc(/C(=N/Nc3ccccc3)c3ccccc3)nn2c1-c1ccc(F)cc1,IC50,[15],10 µM

# Source: ChEMBL document CHEMBL1136837, “Unified QSAR approach to antimicrobials. 4. Multi-target QSAR modeling and comparative multi-distance study of the giant components of antiviral drug-drug complex networks” (Bioorg Med Chem, 2009)
